# From US20250084094A1 (Vertex Pharmaceuticals Incorporated, priority 2021, published 2025)
# Biological target: T1, APOL1 (Homo sapiens, UniProt O14791)
# T1 sequence (O14791 1-398 S342G/I384M): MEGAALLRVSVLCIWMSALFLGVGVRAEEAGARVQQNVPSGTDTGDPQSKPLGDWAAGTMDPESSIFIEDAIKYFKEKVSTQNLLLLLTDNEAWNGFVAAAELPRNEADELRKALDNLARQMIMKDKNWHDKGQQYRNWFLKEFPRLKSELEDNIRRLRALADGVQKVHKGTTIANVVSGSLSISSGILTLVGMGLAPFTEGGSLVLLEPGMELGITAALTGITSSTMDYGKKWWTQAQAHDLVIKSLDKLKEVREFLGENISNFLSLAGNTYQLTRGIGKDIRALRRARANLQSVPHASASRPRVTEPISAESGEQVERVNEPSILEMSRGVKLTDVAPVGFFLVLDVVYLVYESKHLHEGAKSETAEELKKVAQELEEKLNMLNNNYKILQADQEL
# Test: MultiTox-Fluor Multiplex Cytotoxicity Assay in tet-inducible APOL1 T-REx-HEK293 cells
# Format: cell-based
# Settings: tet-inducible transgenic APOL1 T-REx-HEK293 cell lines, 50 ng/mL tet, 24 hours, ratio of dead to live cells; read-out: IP50 (nM) (i.e., IC50 for cell proliferation)
# Procedure: The MultiTox-Fluor Multiplex Cytotoxicity Assay is a single-reagent-addition, homogeneous, fluorescence assay that measures the number of live and dead cells simultaneously in culture wells. The assay measures cell viability and cytotoxicity by detecting two distinct protease activities. The live-cell protease activity is restricted to intact viable cells and is measured using a fluorogenic, cell-permeant peptide glycyl-phenylalanylamino fluorocoumarin (GF-AFC) substrate. The substrate enters intact cells, where it is cleaved to generate a fluorescent signal proportional to the number of living cells. […] A second, cell-impermeant, fluorogenic peptide substrate (bis-AAF-R110 Substrate) is used to measure dead-cell protease that has been released from cells that have lost membrane integrity. A ratio of dead to live cells is used to normalize data.
# Briefly, the tet-inducible transgenic APOL1 T-REx-HEK293 cell lines were incubated with 50 ng/mL tet to induce APOL1 in the presence of 3-(2-(4-fluorophenyl)-1H-indol-3-yl)-N-((3S,4R)-4-hydroxy-2-oxopyrrolidin-3-yl)propenamide at 10.03, 3.24, 1.13, 0.356, 0.129, 0.042, 0.129, 0.0045, 0.0015, 0.0005 μM in duplicate for 24 hours in a humidified 37° C. incubator. The MultiTox reagent was added to each well and placed back in the incubator for an additional 30 minutes. The plate was read on the EnVision plate reader. A ratio of dead to live cells was used to normalize, and data was imported, analyzed, and fit using Genedata Screener (Basel, Switzerland) software. Data was normalized using percent of control, no tet (100% viability), and 50 ng/mL tet treated (0% viability),and fit using Smart Fit. The reagents, methods, and complete protocol for the MultiTox assay are described below.
# Human embryonic kidney (HEK293) cell lines containing a tet-inducible expression system (T-REx™; Invitrogen, Carlsbad, CA) and Adeno-associated virus site 1 pAAVS1-Puro-APOL1 G0 or pAAVS1-Puro-APOL1 G1 or pAAVS1-Puro-APOL1 G2 Clones G0 DC2.13, Gi DC3.25, and G2 DC4.44 were grown in a T-225 flask at ˜90% confluency in cell growth media (DMEM, 10% Tet-free FBS, 2 mM L-glutamine, 100 Units/mL penicillin-streptomycin, 5 μg/mL blasticidin S HCl, 1 μg/mL puromycin dihydrochloride). Cells were washed with DPBS and then trypsinized to dissociate from the flask. Media was used to quench the trypsin, cells were then pelleted at 200 g and resuspended in fresh cell assay media (DMEM, 2% Tet-free FBS, 2 mM L-glutamine, 100 Units/mL penicillin-streptomycin). Cells were counted and diluted to 1.17×10^6 cells/mL. 20 μL of cells (23,400/well) were dispensed in every well of a 384-well Poly-D-Lysine coated plate using the Multidrop dispenser. The plates were then incubated at room temperature for one hour.
# Tetracycline is needed to induce APOL1 expression. 1 mg/mL tet stock in water was diluted to 250 ng/mL (5×) in cell assay media. 60 μL of cell assay media (no tet control) was dispensed in columns 1 and 24, and 60 μL of 5× tet in 384-PP-round bottom plate was dispensed in columns 2 to 23 with the Multidrop dispenser.
# Assay ready plates from the Global Compound Archive were ordered using template 384_APOLICell_DR10n2_50 uM_v3. Compounds were dispensed at 200 nL in DMSO. The final top concentration was 10 μM with a 10 point 3-fold dilution in duplicate in the MultiTox assay.
# 20 μL was transferred from the 5× tet plate to the ARP and mixed, then 5 μL of 5× tet and the compounds were transferred to the cell plate and mixed using the Bravo. The cell plate was placed in the humidified 37° C. 5% CO2 incubator for 24 hours.
# The MultiTox-Fluor Multiplex Cytotoxicity Assay was performed in accordance with the manufacturer's protocol. After cells were incubated with tet and compound for 24 hours, 25 μL of 1x MultiTox reagent was added to each well using the Multidrop dispenser; the plates were placed on a plate shaker (600 rpm) for 2 minutes, then centrifuged briefly and placed back in the 37° C. incubator for 30 minutes. […]
row,SMILES,IC50
1,"C[C@H]1CC2(C[C@@H](c3cn(C)nn3)N1)OC(C(N)=O)c1cc(Cl)ccc12 (single isomer, unassigned) [Compound 40, (2′S,6′S)-6-chloro-2′-methyl-6′-(1-methyltriazol-4-yl)spiro[1H-isobenzofuran-3,4′-piperidine]-1-carboxamide]",50 to 500 nM
2,"C[C@H]1CC2(C[C@@H](c3cn(C)nn3)N1)OC(C(N)=O)c1ccc(Cl)cc12 (single isomer, unassigned) [Compound 42, (2′S,6′S)-5-chloro-2′-methyl-6′-(1-methyltriazol-4-yl)spiro[1H-isobenzofuran-3,4′-piperidine]-1-carboxamide]",50 to 500 nM
3,C[C@H]1C[C@@]2(C[C@@H](c3cn(C)nn3)N1)OCCc1cc(O)c(Cl)cc12 [Compound 1],> 500 nM
4,C[C@H]1C[C@@]2(C[C@@H](c3cn(C)nn3)N1)OCCc1ccc(Cl)c(O)c12 [Compound 2],< 50 nM
5,C[C@H]1C[C@@]2(C[C@@H](c3cnn(CCS(C)(=O)=O)c3)N1)OCCc1cc(O)c(Cl)cc12 [Compound 3],> 500 nM
6,C[C@H]1C[C@@]2(C[C@@H](c3ccn(CCS(C)(=O)=O)c3)N1)OCCc1ccc(Cl)c(O)c12 [Compound 4],50 to 500 nM
7,COc1ccc2c(c1)CCO[C@@]21C[C@@H](c2cn(C)nn2)N[C@@H](C)C1 [Compound 5],< 50 nM
8,COc1cccc2c1[C@]1(C[C@@H](c3cn(C)nn3)N[C@@H](C)C1)OCC2 [Compound 6],> 500 nM
9,C[C@H]1C[C@@]2(C[C@@H](c3cn(C)nn3)N1)OCCc1cc(O)ccc12 [Compound 7],50 to 500 nM
10,C[C@H]1C[C@@]2(C[C@@H](c3cn(C)nn3)N1)OCCc1cccc(O)c12 [Compound 8],50 to 500 nM
11,C[C@H]1C[C@@]2(C[C@@H](c3cn(C)nn3)N1)OCCc1cc(Br)ccc12 [Compound 9],< 50 nM
12,C[C@H]1C[C@@]2(C[C@@H](c3cn(C)nn3)N1)OCCc1ccc(Cl)cc12 [Compound 10],< 50 nM
13,C[C@H]1C[C@@]2(C[C@@H](c3cn(C)nn3)N1)OCCc1ccc(C#N)cc12 [Compound 11],50 to 500 nM
14,C[C@H]1C[C@@]2(C[C@@H](c3cn(C)nn3)N1)OCCc1ccccc12 [Compound 12],< 50 nM
15,"CCc1ccc2c(c1)[C@]1(C[C@@H](c3cn(C)nn3)N[C@@H](C)C1)OCC2 [Compound 13, (1S,2′S,6′S)-7-ethyl-2′-methyl-6′-(1-methyl-1H-1,2,3-triazol-4-yl)spiro[isochromane-1,4′-piperidine]]",< 50 nM
16,C[C@H]1C[C@@]2(C[C@@H](c3cn(C)nn3)N1)OCCc1cc(OS(=O)(=O)C(F)(F)F)ccc12 [Compound 14],50 to 500 nM
17,C[C@H]1C[C@@]2(C[C@@H](c3cn(C)nn3)N1)OCCc1cc(Cl)ccc12 [Compound 15],< 50 nM
18,Cc1ccc2c(c1)CCO[C@@]21C[C@@H](c2cn(C)nn2)N[C@@H](C)C1 [Compound 16],< 50 nM
19,CCc1ccc2c(c1)CCO[C@@]21C[C@@H](c2cn(C)nn2)N[C@@H](C)C1 [Compound 17],< 50 nM

row,SMILES,IC50
1,CC(C)c1ccc2c(c1)CCO[C@@]21C[C@@H](c2cn(C)nn2)N[C@@H](C)C1 [Compound 18],< 50 nM
2,COC(=O)c1ccc2c(c1)CCO[C@@]21C[C@@H](c2cn(C)nn2)N[C@@H](C)C1 [Compound 19],> 500 nM
3,C[C@H]1C[C@@]2(C[C@@H](c3cn(C)nn3)N1)OCCc1cc(C(C)(C)O)ccc12 [Compound 20],50 to 500 nM
4,C[C@H]1C[C@@]2(C[C@@H](c3cn(C)nn3)N1)OCCc1cc(C#N)ccc12 [Compound 21],50 to 500 nM
5,C[C@H]1C[C@@]2(C[C@@H](c3cn(C)nn3)N1)OCCc1cc(CO)ccc12 [Compound 22],> 500 nM
6,C[C@H]1C[C@@]2(C[C@@H](c3cn(C)nn3)N1)OCCc1cc(C(F)(F)F)ccc12 [Compound 23],< 50 nM
7,CC1CC2(CC(c3cnn(CCS(C)(=O)=O)c3)N1)OCCc1ccc(Cl)cc12 (stereo not shown) [Compound 24],50 to 500 nM
8,C[C@H]1C[C@@]2(C[C@@H](c3cn(C)nn3)N1)OC[C@@H](O)c1cc(Cl)ccc12 [Compound 25],< 50 nM
9,C[C@H]1C[C@@]2(C[C@@H](c3cn(C)nn3)N1)OC[C@H](O)c1cc(Cl)ccc12 [Compound 26],< 50 nM
10,"C[C@H]1C[C@@]2(C[C@@H](c3cn(C)nn3)N1)OC[C@@H](O)c1cc(C(F)(F)F)ccc12 [Compound 27, (1S,2′S,4S,6′S)-2′-methyl-6′-(1-methyl-1H-1,2,3-triazol-4-yl)-6-(trifluoromethyl)spiro[isochromane-1,4′-piperidin]-4-ol]",< 50 nM
11,"C[C@H]1C[C@@]2(C[C@@H](c3cn(C)nn3)N1)OC[C@H](O)c1cc(C(F)(F)F)ccc12 [Compound 28, (1S,2′S,4R,6′S)-2′-methyl-6′-(1-methyl-1H-1,2,3-triazol-4-yl)-6-(trifluoromethyl)spiro[isochromane-1,4′-piperidin]-4-ol]",< 50 nM
12,C[C@H]1C[C@@]2(C[C@@H](c3cn(C)nn3)N1)OCC(O)c1ccc(Cl)cc12 (stereo partly shown) [Compound 29],50 to 500 nM
13,"C[C@H]1C[C@@]2(C[C@@H](c3cn(C)nn3)N1)OCC(O)c1ccc(Cl)cc12 (stereo partly drawn) [Compound 30, (1S,2′S,6′S)-7-chloro-2′-methyl-6′-(1-methyl-1H-1,2,3-triazol-4-yl)spiro[isochromane-1,4′-piperidin]-4-ol]",50 to 500 nM
14,"C[C@H]1C[C@]2(C[C@@H](c3cn(C)nn3)N1)C(=O)Nc1ccccc12 [Compound 31, (2′S,3R,6′S)-2′-methyl-6′-(1-methyltriazol-4-yl)spiro[indoline-3,4′-piperidine]-2-one]",> 500 nM
15,"C[C@H]1C[C@@]2(C[C@@H](c3cn(C)nn3)N1)C(=O)Nc1ccccc12 [Compound 32, (2′S,3S,6′S)-2′-methyl-6′-(1-methyltriazol-4-yl)spiro[indoline-3,4′-piperidine]-2-one]",< 50 nM
16,"Cc1ccc2c(c1)NC(=O)[C@@]21C[C@@H](c2cn(C)nn2)N[C@@H](C)C1 [Compound 33, (2′S,3S,6′S)-2′,6-dimethyl-6′-(1-methyltriazol-4-yl)spiro[indoline-3,4′-piperidine]-2-one]",< 50 nM
17,"Cc1ccc2c(c1)[C@]1(C[C@@H](c3cn(C)nn3)N[C@@H](C)C1)C(=O)N2 [Compound 34, (2′S,3S,6′S)-2′,5-dimethyl-6′-(1-methyltriazol-4-yl)spiro[indoline-3,4′-piperidine]-2-one]",< 50 nM
18,"C[C@H]1C[C@@]2(C[C@@H](c3cn(C)nn3)N1)C(=O)Nc1ccc(Cl)cc12 [Compound 35, (2′S,3S,6′S)-5-chloro-2′-methyl-6′-(1-methyltriazol-4-yl)spiro[indoline-3,4′-piperidine]-2-one]",< 50 nM
